According to ChEMBL document CHEMBL1142024, “Glucokinase-activating ureas” (Bioorg Med Chem Lett, 2005):
Activity calls are given as the source filed them. The calls are words filed in the database; no cut-off is given here.

Tests used:
Hexokinase-4 [1] = target: T1, Hexokinase-4 (Rattus norvegicus, UniProt P17712); test: Effective concentration for glucokinase activation with 5 mM glucose; format: functional
T1 sequence (P17712 whole entry): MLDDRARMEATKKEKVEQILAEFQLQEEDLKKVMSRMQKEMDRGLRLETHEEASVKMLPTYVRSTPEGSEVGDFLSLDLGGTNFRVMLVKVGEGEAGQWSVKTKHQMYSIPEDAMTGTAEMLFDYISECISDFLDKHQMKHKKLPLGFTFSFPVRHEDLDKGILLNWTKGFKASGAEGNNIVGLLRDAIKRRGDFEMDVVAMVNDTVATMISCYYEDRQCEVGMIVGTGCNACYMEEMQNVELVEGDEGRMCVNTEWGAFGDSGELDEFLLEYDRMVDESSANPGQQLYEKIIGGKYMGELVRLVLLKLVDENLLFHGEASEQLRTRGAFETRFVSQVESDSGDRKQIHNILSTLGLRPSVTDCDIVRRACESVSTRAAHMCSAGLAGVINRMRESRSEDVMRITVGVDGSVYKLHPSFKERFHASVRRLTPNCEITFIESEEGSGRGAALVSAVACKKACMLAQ

Hexokinase-4 [2] = target: T1, Hexokinase-4; test: Effective concentration for glucokinase activation with 15 mM glucose; format: functional
[3] = target: T2, Hexokinase-4 (Rattus norvegicus) (UniProt P17712); test: Maximal activation of glucokinase at 15 mM glucose
T2 sequence (whole entry): T1 sequence (P17712 whole entry)

[4] = target: T2, Hexokinase-4 (Rattus norvegicus); test: Maximal activation of glucokinase; NA - No activation at 30 uM
Hexokinase-4 [5] = target: T1, Hexokinase-4; test: Effective concentration for glucokinase activation; NA - No activation at 30 uM; format: functional
Hexokinase-4 [6] = target: T1, Hexokinase-4; test: Effective concentration for glucokinase activity; NA - No activation at 30 uM; format: functional

| EC50 (Hexokinase-4 [1]) [µM] | SMILES | further results |
| --- | --- | --- |
| 16.3 | O=C(Nc1nccs1)N(CC1CCCC1)c1ccc(F)c(F)c1 |  |
| 34.2 | CS(=O)(=O)c1ccc(N(CC2CCCC2)C(=O)Nc2nnc(C(F)(F)F)s2)cc1 |  |
| 1 | NC(=O)c1cccc(N(CC2CCCC2)C(=O)Nc2ncc(Cl)s2)c1 |  |
| 4.9 | CS(=O)(=O)c1ccc(N(CC2CCOCC2)C(=O)Nc2ncc(Cl)s2)cc1 |  |
| 11.5 | CS(=O)(=O)c1ccc(N(Cc2ccco2)C(=O)Nc2ncc(Cl)s2)cc1 |  |
| 16 | CS(=O)(=O)c1ccc(N(CC2CCCC2)C(=O)Nc2nccs2)cc1 | EC50 (Hexokinase-4 [2]): 9.7 µM; Activity [3]: 2.8 |
| 6.5 | CS(=O)(=O)c1ccc(N(Cc2ccsc2)C(=O)Nc2ncc(Br)s2)cc1 |  |
|  | COc1ccc(N(CC2CCCC2)C(=O)Nc2nncs2)cn1 | Activity [4]: inactive; EC50 (Hexokinase-4 [5]): Not Active |
| 1.5 | CS(=O)(=O)c1ccc(N(CC2CCCC2)C(=O)Nc2ncc(Cl)s2)cc1 |  |
|  | O=C(Nc1ncc(Cl)s1)N(CC1CCCC1)c1ccc(Oc2ccccc2)cc1 | EC50 (Hexokinase-4 [6]): Not Active; Activity [4]: inactive |
|  | O=C(Nc1ccccn1)N(CC1CCCC1)c1ccc(F)c(F)c1 | Activity [4]: inactive; EC50 (Hexokinase-4 [5]): Not Active |
| 24.1 | CS(=O)(=O)c1ccc(N(Cc2nccs2)C(=O)Nc2ncc(Br)s2)cc1 |  |
| 1.3 | O=C(Nc1ncc(Cl)s1)N(CC1CCCC1)c1ccc(C(F)(F)F)cc1 |  |
| 21.9 | CS(=O)(=O)c1ccc(N(CC2CCOC2)C(=O)Nc2ncc(Cl)s2)cc1 (stereo not given) |  |
| 2.7 | COc1ccc(N(CC2CCCC2)C(=O)Nc2ncc(Cl)s2)cn1 |  |
| 32.9 | CS(=O)(=O)c1ccc(N(CC2CCCC2)C(=O)Nc2nc3ccc(S(C)(=O)=O)cc3s2)cc1 |  |
| 2 | COc1ccc(N(CC2CCCC2)C(=O)Nc2ncc(Br)s2)cn1 |  |
| 1.8 | NS(=O)(=O)c1ccc(N(CC2CCCC2)C(=O)Nc2ncc(Cl)s2)cc1 |  |
| 6.8 | CS(=O)(=O)c1ccc(N(Cc2ccsc2)C(=O)Nc2ncc(Cl)s2)cc1 |  |
| 1.4 | COc1cccc(N(CC2CCCC2)C(=O)Nc2ncc(Cl)s2)c1 |  |
| 29.1 | COc1ccc(N(CC2CCCC2)C(=O)NC2=NC(=O)CS2)cn1 |  |
| 7.7 | N#Cc1ccc(N(CC2CCCC2)C(=O)Nc2ncc(Cl)s2)cn1 |  |
| 19.2 | COc1ccc(N(CC2CCCC2)C(=O)Nc2nccs2)cn1 |  |
|  | O=C(Nc1ncc(Cl)s1)N(CC1CCCC1)c1ccc(N2CCOCC2)cc1 | EC50 (Hexokinase-4 [6]): Not Active; Activity [4]: inactive |
| 21.6 | CS(=O)(=O)c1ccc(N(CC2CCCO2)C(=O)Nc2ncc(Cl)s2)cc1 (stereo not given) |  |
| 2.6 | O=C(Nc1ncc(Cl)s1)N(CC1CCCC1)c1ccc(F)c(F)c1 |  |
| 2.2 | CS(=O)(=O)c1ccc(C(CC2CCCC2)C(=O)Nc2nccs2)cc1 (stereo not given) | EC50 (Hexokinase-4 [2]): 1 µM; Activity [3]: 1.6 |
| 6.6 | CS(=O)(=O)c1ccc(N(Cc2cccs2)C(=O)Nc2ncc(Cl)s2)cc1 |  |
| 2.4 | N#Cc1ccc(N(CC2CCCC2)C(=O)Nc2ncc(Cl)s2)cc1 |  |

| SMILES | EC50 (Hexokinase-4 [1]) [µM] | further results |
| --- | --- | --- |
| Cc1ccc(N(CC2CCCC2)C(=O)Nc2ncc(Cl)s2)cc1Cl | 0.4 |  |
| CC(=O)Nc1cccc(N(CC2CCCC2)C(=O)Nc2ncc(Cl)s2)c1 | 0.3 |  |
| O=C(Nc1ncc(Cl)s1)N(CC1CCCC1)c1ccc(Br)c(F)c1 | 0.7 |  |
